{"source": "patent US20170210738A1", "about": "“GLUCOSE TRANSPORT INHIBITORS” (Bayer Pharma Aktiengesellschaft, priority 2014, published 2017)"}
{"target": "T1, GLUT2 (Homo sapiens, UniProt P11168)", "T1 construct": "host or cells: DLD1 or CHO-K1", "T1 sequence (P11168 1-524)": "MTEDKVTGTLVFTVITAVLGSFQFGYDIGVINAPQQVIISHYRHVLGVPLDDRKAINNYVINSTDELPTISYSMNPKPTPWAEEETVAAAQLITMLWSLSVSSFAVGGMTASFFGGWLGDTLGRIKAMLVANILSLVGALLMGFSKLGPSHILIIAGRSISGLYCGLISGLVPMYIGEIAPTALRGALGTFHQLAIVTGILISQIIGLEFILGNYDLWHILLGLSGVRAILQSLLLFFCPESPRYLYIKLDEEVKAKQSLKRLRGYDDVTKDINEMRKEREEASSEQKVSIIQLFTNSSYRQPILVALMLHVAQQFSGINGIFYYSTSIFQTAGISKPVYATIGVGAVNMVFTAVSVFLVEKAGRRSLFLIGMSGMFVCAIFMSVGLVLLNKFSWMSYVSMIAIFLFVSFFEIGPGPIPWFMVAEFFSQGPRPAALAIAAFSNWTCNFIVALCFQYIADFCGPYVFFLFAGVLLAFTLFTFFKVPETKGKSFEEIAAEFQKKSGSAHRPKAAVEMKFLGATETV", "assay": "Indirect measurement of GLUT activity by quantification of intracellular ATP levels: fructose induced ATP increase (GLUT2 inhibition)", "format": "cell-based", "settings": "30 mM fructose, 1 uM Rotenone, 15 min; CellTiter-Glo ATP levels; DLD1 or CHO-K1 cells; read-out: IC50 regarding fructose induced ATP increase (GLUT2 inhibition)", "text": "(§1) Indirect Measurement of GLUT Activity by Quantification of Intracellular ATP Levels\n(§2) It is well known that a combination of small-molecule inhibitors of mitochondrial electron transport chain and glucose catabolism synergistically suppress ATP production and impair cellular viability (Ulanovskaya et al., 2008, 2011; Liu, et al. 2001). We therefore used DLD1 or CHO-K1 cells in combination with an oxidative phosphorylation inhibitor to identify GLUT inhibitors. Cell lines were maintained in DMEM medium supplemented with 10% FCS and 1% Penicillin-Streptomycin solution and 2% Glutamax. The cells were treated with trypsin and seeded into 384 plates at a density of 4000 cells/well. The cells were then cultured overnight in glucose free media containing 1% FCS to reduce intracellular ATP levels. After 24 h the cells were incubated at 37° C. containing the appropriate glucose or in case of GLUT2 fructose concentration (1 mM and 30 mM respectively) with or without compounds and 1 uM Rotenone for 15 min. The CellTiter-Glo® Luminescent Cell Viability Assay from Promega was then used to measure ATP levels. Compounds able to reduce the ATP levels within 15 min of glucose application were considered to be glucose uptake inhibitors.", "units": {"IC50": "nM"}}
{"smiles": "Cc1ccc2nc(C)cc(C(=O)Nc3cnn(Cc4ccc(F)cc4)c3C)c2c1", "note": "[Example 1, N-[1-(4-fluorobenzyl)-5-methyl-1H-pyrazol-4-yl]-2,6-dimethylquinoline-4-carboxamide]", "IC50": 5990}
{"smiles": "COc1cc(C(=O)Nc2cnn(Cc3ccc(C#N)cc3)c2C)c2ccccc2n1", "note": "[Example 10, N-[1-(4-cyanobenzyl)-5-methyl-1H-pyrazol-4-yl]-2-methoxyquinoline-4-carboxamide]", "IC50": 1650}
{"target": "T2, GLUT1 (Homo sapiens, UniProt P11166)", "T2 construct": "endogenous in cells; host or cells: DLD1 or CHO-K1", "T2 sequence (P11166 1-492)": "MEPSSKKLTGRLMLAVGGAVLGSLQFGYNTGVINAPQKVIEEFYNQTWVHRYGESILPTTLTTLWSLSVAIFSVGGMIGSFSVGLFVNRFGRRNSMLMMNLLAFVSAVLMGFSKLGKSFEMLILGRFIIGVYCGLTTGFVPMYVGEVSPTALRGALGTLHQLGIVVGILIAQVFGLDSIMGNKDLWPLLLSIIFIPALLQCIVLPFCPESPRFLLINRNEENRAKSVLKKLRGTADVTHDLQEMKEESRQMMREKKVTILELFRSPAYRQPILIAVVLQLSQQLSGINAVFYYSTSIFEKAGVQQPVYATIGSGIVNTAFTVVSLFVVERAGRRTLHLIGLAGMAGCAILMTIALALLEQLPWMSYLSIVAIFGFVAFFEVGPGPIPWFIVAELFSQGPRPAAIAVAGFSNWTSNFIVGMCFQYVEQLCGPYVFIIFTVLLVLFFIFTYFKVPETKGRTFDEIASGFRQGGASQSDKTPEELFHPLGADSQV", "assay": "Indirect measurement of GLUT activity by quantification of intracellular ATP levels: glucose induced ATP increase (GLUT1 inhibition)", "format": "cell-based", "settings": "DLD1 cells; 1 mM glucose, 1 uM Rotenone, 15 min; CellTiter-Glo ATP levels; IC50 values standardized to cytochalasin B IC50 values; read-out: IC50 regarding glucose induced ATP increase (GLUT1 inhibition)", "text": "as §1, §2", "units": {"IC50": "nM"}}
{"smiles": "Cc1ccc2nc(C)cc(C(=O)Nc3cnn(Cc4ccc(F)cc4)c3C)c2c1", "note": "[Example 1, N-[1-(4-fluorobenzyl)-5-methyl-1H-pyrazol-4-yl]-2,6-dimethylquinoline-4-carboxamide]", "IC50": 9.4}
{"smiles": "COc1cc(C(=O)Nc2cnn(Cc3ccc(C#N)cc3)c2C)c2ccccc2n1", "note": "[Example 10, N-[1-(4-cyanobenzyl)-5-methyl-1H-pyrazol-4-yl]-2-methoxyquinoline-4-carboxamide]", "IC50": 87}
{"smiles": "CNC(=O)c1nc(Cn2ncc(NC(=O)c3cc(C(N)=O)nc4ccccc34)c2C)no1", "note": "[Example 36, N^4-(5-methyl-1-{[5-(methylcarbamoyl)-1,2,4-oxadiazol-3-yl]methyl}-1H-pyrazol-4-yl)quinoline-2,4-dicarboxamide]", "IC50": 2220}
{"smiles": "COc1ccc(Cn2ncc(NC(=O)c3cc(OC)nc4ccccc34)c2C)cc1", "note": "[Example 11, 2-methoxy-N-[1-(4-methoxybenzyl)-5-methyl-1H-pyrazol-4-yl]quinoline-4-carboxamide]", "IC50": 19}
{"smiles": "CCc1c(NC(=O)c2cc(C(N)=O)nc3cc(F)c(Cl)cc23)cnn1Cc1ccc(C#N)cc1", "note": "[Example 32, 6-chloro-N^4-[1-(4-cyanobenzyl)-5-ethyl-1H-pyrazol-4-yl]-7-fluoroquinoline-2,4-dicarboxamide]", "IC50": 43}
{"smiles": "Cc1cc(Cn2ncc(NC(=O)c3cc(C(F)(F)F)nc4ccc(Br)cc34)c2C)no1", "note": "[Example 42, 6-bromo-N-{5-methyl-1-[(5-methyl-1,2-oxazol-3-yl)methyl]-1H-pyrazol-4-yl}-2-(trifluoromethyl)quinoline-4-carboxamide]", "IC50": 1130}
{"smiles": "CC(C)c1c(NC(=O)c2cc(C(N)=O)nc3cc(F)ccc23)cnn1Cc1ccc(C#N)cc1", "note": "[Example 33, N^4-[1-(4-cyanobenzyl)-5-isopropyl-1H-pyrazol-4-yl]-7-fluoroquinoline-2,4-dicarboxamide]", "IC50": 940}
{"smiles": "NC(=O)c1c(NC(=O)c2cc(C(F)(F)F)nc3ccc(Br)cc23)cnn1Cc1ccc(F)cc1", "note": "[Example 18, 6-bromo-N-[5-carbamoyl-1-(4-fluorobenzyl)-1H-pyrazol-4-yl]-2-(trifluoromethyl)quinoline-4-carboxamide]", "IC50": 1250}
{"smiles": "Cc1c(NC(=O)c2cc(C(N)=O)nc3cc(F)ccc23)cnn1Cc1ccc(C#N)cc1", "note": "[Example 24, N^4-[1-(4-cyanobenzyl)-5-methyl-1H-pyrazol-4-yl]-7-fluoroquinoline-2,4-dicarboxamide]", "IC50": 7.1}
{"smiles": "Cc1c(NC(=O)c2cc(C(N)=O)nc3ccccc23)cnn1Cc1ccncc1", "note": "[Example 29, N^4-[5-methyl-1-(pyridin-4-ylmethyl)-1H-pyrazol-4-yl]quinoline-2,4-dicarboxamide]", "IC50": 2150}
{"smiles": "Cc1c(NC(=O)c2cc(C(N)=O)nc3ccccc23)cnn1Cc1ccc(C#N)cc1", "note": "[Example 9, N^4-[1-(4-cyanobenzyl)-5-methyl-1H-pyrazol-4-yl]quinoline-2,4-dicarboxamide]", "IC50": 8.9}
{"smiles": "CCS(=O)(=O)N1CCC(Cn2ncc(NC(=O)c3cc(C(N)=O)nc4ccccc34)c2C)CC1", "note": "[Example 43, N^4-(1-{[1-(ethylsulfonyl)piperidin-4-yl]methyl}-5-methyl-1H-pyrazol-4-yl)quinoline-2,4-dicarboxamide]", "IC50": 396}
{"smiles": "Cc1c(NC(=O)c2cc(C(N)=O)nc3ccccc23)cnn1Cc1ccc(F)c(F)c1", "note": "[Example 26, N^4-[1-(3,4-difluorobenzyl)-5-methyl-1H-pyrazol-4-yl]quinoline-2,4-dicarboxamide]", "IC50": 95}
{"smiles": "CCc1c(NC(=O)c2cc(C(N)=O)nc3cc(F)ccc23)cnn1Cc1ccc(C#N)cc1", "note": "[Example 30, N^4-[1-(4-cyanobenzyl)-5-ethyl-1H-pyrazol-4-yl]-7-fluoroquinoline-2,4-dicarboxamide]", "IC50": 46}
